Experimental data as given in ChEMBL document CHEMBL3232969, “Structure-based design and synthesis of tricyclic IAP (Inhibitors of Apoptosis Proteins) inhibitors” (Bioorg Med Chem Lett, 2014).

What was measured:
MDA-MB-231 = test: Growth inhibition of human MDA-MB-231 cells; format: functional
[1] = Lipophilicity, log D of the compound; conditions: octanol/water
[2] = Aqueous solubility of the compound
[3] = (§1) Percentage unbound in human plasma; conditions: Fu
Liver microsome = test: Intrinsic clearance in human liver microsomes; conditions: microsomes
Plasma = test: as §1
[4] = Inhibition of Cytochrome P450 (unknown origin); format: ADME; conditions: human
[5] = target: Voltage-gated inwardly rectifying potassium channel KCNH2 (Homo sapiens, UniProt Q12809); test: Inhibition of human ERG
[6] = Intrinsic clearance in rat microsomes; format: ADME, Microsome

Sequence of Voltage-gated inwardly rectifying potassium channel KCNH2 (Q12809 whole entry): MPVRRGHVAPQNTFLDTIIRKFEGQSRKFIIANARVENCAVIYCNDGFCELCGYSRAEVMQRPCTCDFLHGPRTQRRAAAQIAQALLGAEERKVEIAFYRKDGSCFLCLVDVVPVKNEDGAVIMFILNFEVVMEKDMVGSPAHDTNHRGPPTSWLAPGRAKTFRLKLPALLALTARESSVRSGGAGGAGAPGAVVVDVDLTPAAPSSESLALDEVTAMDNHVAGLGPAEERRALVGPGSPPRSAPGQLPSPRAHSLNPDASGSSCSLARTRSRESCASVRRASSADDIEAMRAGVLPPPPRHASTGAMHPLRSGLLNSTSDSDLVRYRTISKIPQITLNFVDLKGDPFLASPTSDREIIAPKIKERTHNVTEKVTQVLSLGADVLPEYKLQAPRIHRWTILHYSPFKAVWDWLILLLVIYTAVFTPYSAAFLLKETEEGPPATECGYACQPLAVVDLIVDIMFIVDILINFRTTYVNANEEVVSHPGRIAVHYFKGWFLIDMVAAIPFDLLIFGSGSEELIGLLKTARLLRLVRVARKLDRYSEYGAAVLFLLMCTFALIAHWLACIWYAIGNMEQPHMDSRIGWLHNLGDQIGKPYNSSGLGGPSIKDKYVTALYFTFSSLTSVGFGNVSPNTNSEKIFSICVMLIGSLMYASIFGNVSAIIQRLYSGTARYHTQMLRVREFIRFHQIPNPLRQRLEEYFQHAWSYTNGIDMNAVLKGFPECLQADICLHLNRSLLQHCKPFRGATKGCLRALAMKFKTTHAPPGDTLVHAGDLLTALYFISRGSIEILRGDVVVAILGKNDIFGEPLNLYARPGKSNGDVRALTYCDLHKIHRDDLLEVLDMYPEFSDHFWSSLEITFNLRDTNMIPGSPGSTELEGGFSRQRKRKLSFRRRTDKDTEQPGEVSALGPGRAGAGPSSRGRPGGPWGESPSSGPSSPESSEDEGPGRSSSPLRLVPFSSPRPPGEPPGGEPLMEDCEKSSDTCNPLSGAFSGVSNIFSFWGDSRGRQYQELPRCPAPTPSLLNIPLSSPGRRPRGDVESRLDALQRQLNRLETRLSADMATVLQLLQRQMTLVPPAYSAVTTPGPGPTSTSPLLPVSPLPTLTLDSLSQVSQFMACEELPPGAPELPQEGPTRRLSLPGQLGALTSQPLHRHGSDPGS

Row | Structure (SMILES) | GI50 (MDA-MB-231) [µM] | logD ([1]; logD) | solubility [2] [µM] | fraction unbound [3] | CLH (Liver microsome) [µL/min/mg] | logD [1] | Fu (Plasma) [%] | INH [4] [µM] | INH [5] [µM] | microsomal CLint [6] [µL/min/mg]
1 | C#CCOCC(C(=O)N1CC[C@@H]2C[C@@H]3CCC[C@H](NC(=O)[C@H](C)NC)C(=O)N3[C@@H]2C1)c1ccccc1 (stereo in doubt; 42) | 3.7 | 0.6 | > 1000 | 0.14 | 23 | – | – | – | – | –
2 | C#CCOCC(C(=O)N1CC[C@@H]2C[C@@H]3CCC[C@H](NC(=O)[C@H](C)NC)C(=O)N3[C@@H]2C1)c1ccccc1 (stereo in doubt; 43) | > 11 | – | – | – | 8.5 | 0.8 | 17 | – | – | –
3 | CN[C@@H](C)C(=O)N[C@H]1CCC[C@H]2C[C@H]3CCN(C(=O)C(OCC#CC#CCOC(C(=O)N4CC[C@@H]5C[C@@H]6CCC[C@H](NC(=O)[C@H](C)NC)C(=O)N6[C@@H]5C4)c4ccccc4)c4ccccc4)C[C@H]3N2C1=O (stereo in doubt; 53) | 0.01 | 1.8 | > 1000 | 0.051 | – | – | – | > 20 | > 33 | 7
